Here are results for 31 compounds from patent publication US9206191B2, “Indazoles for the treatment and prophylaxis of respiratory syncytial virus infection” (Hoffmann-La Roche Inc., priority 2012, dated 2015).

Broadly, the EC50 is the concentration giving half of the maximal effect. Read a high EC50 as a need for much substance.

Structures are written as SMILES.

The experiment has as its system RSV Long strain. As to the kind of experiment: Viral Cytopathic Effect (CPE) Assay. In kind it is cell-based. Particulars: human respiratory syncytial virus, 144 h, cell viability after 6 days, Cell Counting kit-8. On the technique in general: Protection from cytopathic effect is a common read-out in antiviral testing.
Compound `CC(=O)N1CC[C@@H](n2c(Cn3nc(S(C)(=O)=O)c4ccncc43)nc3cc(Cl)ccc32)C1` [Example 6-1, 1-[(3R)-3-(5-Chloro-2-{[3-(methylsulfonyl)-1H-pyrazolo[3,4-c]pyridin-1-yl]methyl}-1H-benzimidazol-1-yl)pyrrolidin-1-yl]ethanone] returned an EC50 of 7 nM.

Consider `CS(=O)(=O)c1nn(Cc2nc3cc(Cl)ccc3n2[C@@H]2CCN(CC(F)(F)F)C2)c2cnccc12` [Example 2-20, 1-({5-Chloro-1-[(3R)-1-(2,2,2-trifluoroethyl)pyrrolidin-3-yl]-1H-benzimidazol-2-yl}methyl)-3-(methylsulfonyl)-1H-pyrazolo[3,4-c]pyridine], for which the response was half-maximal at 188 nM (EC50).

`CS(=O)(=O)CCCn1c(Cn2nc(S(C)(=O)=O)c3ccncc32)cc2cc(Cl)ccc21` [Example 9-2, 1-({5-Chloro-1-[3-(methylsulfonyl)propyl]-1H-indol-2-yl}methyl)-3-(methylsulfonyl)-1H-pyrazolo[3,4-c]pyridine] came in with an EC50 of 8.12 nM. In turn, `CS(=O)(=O)c1nn(Cc2nc3cc(Cl)ccc3n2C2CCS(=O)(=O)C2)c2ccccc12` (stereo not shown) [Example 2-2, 1-{[5-Chloro-1-(1,1-dioxidotetrahydrothiophen-3-yl)-1H-benzimidazol-2-yl]methyl}-3-(methylsulfonyl)-1H-indazole] returned an EC50 of 7.86 nM. Compound `CS(=O)(=O)c1nn(Cc2nc3cc(Cl)ccc3n2C2CCOC2)c2cnccc12` (stereo not shown) [Example 2-28, 1-{[5-Chloro-1-(tetrahydrofuran-3-yl)-1H-benzimidazol-2-yl]methyl}-3-(methylsulfonyl)-1H-pyrazolo[3,4-c]pyridine] returned a half-maximal effective concentration (EC50) of 7.57 nM. As for `CS(=O)(=O)c1nn(Cc2nc3cc(Cl)ccc3n2CCOCCO)c2cnccc12` [Example 2-35, 2-[2-(5-chloro-2-{[3-(methylsulfonyl)-1H-pyrazolo[3,4-c]pyridin-1-yl]methyl}-1H-benzimidazol-1-yl)ethoxy]ethanol], the figure is 15 nM; as for `CS(=O)(=O)c1nn(Cc2nc3cc(Cl)ccc3n2CCC2COC2)c2cnccc12` [Example 2-23, 1-({5-Chloro-1-[2-(oxetan-3-yl)ethyl]-1H-benzimidazol-2-yl}methyl)-3-(methylsulfonyl)-1H-pyrazolo[3,4-c]pyridine], 6 nM; as for `CCC(=O)N1CC[C@@H](n2c(Cn3nc(S(C)(=O)=O)c4ccccc43)nc3cc(Cl)ccc32)C1` [Example 6-3, 1-[(3R)-3-(5-Chloro-2-{[3-(methylsulfonyl)-1H-indazol-1-yl]methyl}-1H-benzimidazol-1-yl)pyrrolidin-1-yl]propan-1-one], 6.07 nM.

With `CC(C)(O)CCn1c(Cn2nc(S(C)(=O)=O)c3ccncc32)nc2cc(Cl)ccc21` [Example 2-29, 4-(5-Chloro-2-{[3-(methylsulfonyl)-1H-pyrazolo[3,4-c]pyridin-1-yl]methyl}-1H-benzimidazol-1-yl)-2-methylbutan-2-ol], a half-maximal effect (EC50) was put at 8.04 nM. This EC50 and that of the compound before are within 1.5-fold of each other.

As for `CS(=O)(=O)c1nn(Cc2nc3cc(Cl)ccc3n2C2CCC(O)CC2)c2cnccc12` (stereo not shown) [Example 2-11, 4-(5-Chloro-2-{[3-(methylsulfonyl)-1H-pyrazolo[3,4-c]pyridin-1-yl]methyl}-1H-benzimidazol-1-yl)cyclohexanol], the EC50 amounted to 8.2 nM.

The compound `CS(=O)(=O)c1nn(Cc2nc3cc(Cl)ccc3n2CC2CCOC2)c2cnccc12` (stereo not shown) [Example 2-31, 1-{[5-Chloro-1-(tetrahydrofuran-3-ylmethyl)-1H-benzimidazol-2-yl]methyl}-3-(methylsulfonyl)-1H-pyrazolo[3,4-c]pyridine] showed a concentration giving a half-maximal response (EC50) of 4.34 nM. Regarding `CS(=O)(=O)c1nn(Cc2nc3cc(Cl)ccc3n2CCCO)c2cnccc12` [Example 2-27, 3-(5-Chloro-2-{[3-(methylsulfonyl)-1H-pyrazolo[3,4-c]pyridin-1-yl]methyl}-1H-benzimidazol-1-yl)propan-1-ol], the EC50 was determined as 7.53 nM. Compared with the last compound, the EC50 is about 1.7-fold higher.

In turn, `CS(=O)(=O)CCCn1c(Cn2cc(S(C)(=O)=O)c3ccncc32)nc2cc(Cl)ccc21` [Example 1-4, 5-Chloro-1-[3-(methylsulfonyl)propyl]-2-{[3-(methylsulfonyl)-1H-pyrrolo[2,3-c]pyridin-1-yl]methyl}-1H-benzimidazole] came in with an EC50 of 82 nM. As for `CS(=O)(=O)c1nn(Cc2nc3cc(Cl)ccc3n2[C@H]2CCN(CC(F)(F)F)C2)c2cnccc12` [Example 2-19, 1-({5-Chloro-1-[(3S)-1-(2,2,2-trifluoroethyl)pyrrolidin-3-yl]-1H-benzimidazol-2-yl}methyl)-3-(methylsulfonyl)-1H-pyrazolo[3,4-c]pyridine], the figure is 1170 nM; as for `CCS(=O)(=O)c1cn(Cc2nc3cc(Cl)ccc3n2CCCS(C)(=O)=O)c2ccccc12` [Example 1-5, 5-Chloro-2-{[3-(ethylsulfonyl)-1H-indol-1-yl]methyl}-1-[3-(methylsulfonyl)propyl]-1H-benzimidazole], 65 nM; as for `CS(=O)(=O)c1nn(Cc2nc3cc(Cl)ccc3n2CCC2(O)CC2)c2cnccc12` [Example 2-34, 1-[2-(5-Chloro-2-{[3-(methylsulfonyl)-1H-pyrazolo[3,4-c]pyridin-1-yl]methyl}-1H-benzimidazol-1-yl)ethyl]cyclopropanol], 8.7 nM. For `CS(=O)(=O)CCn1c(Cn2nc(S(C)(=O)=O)c3ccncc32)cc2cc(Cl)cc(F)c21` [Example 9-3, 1-({5-Chloro-7-fluoro-1-[2-(methylsulfonyl)ethyl]-1H-indol-2-yl}methyl)-3-(methylsulfonyl)-1H-pyrazolo[3,4-c]pyridine], a half-maximal effect (EC50) was put at 7.21 nM. In the case of `CS(=O)(=O)c1nn(Cc2nc3cc(Cl)ccc3n2[C@@H]2CCN(CCO)C2)c2cnccc12` [Example 6-7, 2-[(3R)-3-(5-Chloro-2-{[3-(methylsulfonyl)-1H-pyrazolo[3,4-c]pyridin-1-yl]methyl}-1H-benzimidazol-1-yl)pyrrolidin-1-yl]ethanol], the midpoint of the response, the EC50, lay at 3.68 nM. With `CS(=O)(=O)c1nn(Cc2nc3cc(Cl)ccc3n2[C@H]2C[C@@](C)(O)C2)c2cnccc12` [Example 2-33, cis-3-(5-Chloro-2-{[3-(methylsulfonyl)-1H-pyrazolo[3,4-c]pyridin-1-yl]methyl}-1H-benzimidazol-1-yl)-1-methylcyclobutanol], the EC50 came to 9.85 nM. In the case of `CS(=O)(=O)CCCn1c(Cn2nc(S(C)(=O)=O)c3ccccc32)nc2cc(Cl)ccc21` [Example 1-8, 1-({5-Chloro-1-[3-(methylsulfonyl)propyl]-1H-benzimidazol-2-yl}methyl)-3-(methylsulfonyl)-1H-indazole], the EC50 stood at 16 nM. As for `CS(=O)(=O)c1nn(Cc2nc3cc(Cl)ccc3n2CCCCO)c2cnccc12` [Example 2-30, 4-(5-Chloro-2-{[3-(methylsulfonyl)-1H-pyrazolo[3,4-c]pyridin-1-yl]methyl}-1H-benzimidazol-1-yl)butan-1-ol], the EC50 worked out at 4.81 nM.

`CC(C)S(=O)(=O)c1nn(Cc2nc3cc(Cl)ccc3n2CCCS(C)(=O)=O)c2ccccc12` [Example 1-9, 1-({5-Chloro-1-[3-(methylsulfonyl)propyl]-1H-benzimidazol-2-yl}methyl)-3-(propan-2-ylsulfonyl)-1H-indazole] showed an EC50 of 74.4 nM. Regarding `COc1ccc(-n2c(Cn3nc(S(C)(=O)=O)c4ccccc43)nc3cc(Cl)ccc32)cn1` [Example 3-4, 1-{[5-Chloro-1-(6-methoxypyridin-3-yl)-1H-benzimidazol-2-yl]methyl}-3-(methylsulfonyl)-1H-indazole], the midpoint of the response, the EC50, lay at 33.5 nM. On to `CS(=O)(=O)CCCn1c(Cn2cc(S(=O)(=O)C3CC3)c3ccccc32)nc2cc(Cl)ccc21` [Example 1-7, 5-Chloro-2-{[3-(cyclopropylsulfonyl)-1H-indol-1-yl]methyl}-1-[3-(methylsulfonyl)propyl]-1H-benzimidazole], for which the EC50 was found to be 227 nM. Against the preceding compound, the EC50 is about 6.8-fold higher. On to `CS(=O)(=O)c1nn(Cc2nc3cc(Cl)ccc3n2[C@H]2C[C@](C)(O)C2)c2cnccc12` [Example 2-26, trans-3-(5-Chloro-2-{[3-(methylsulfonyl)-1H-pyrazolo[3,4-c]pyridin-1-yl]methyl}-1H-benzimidazol-1-yl)-1-methylcyclobutanol], for which the EC50 worked out at 7 nM. This EC50 is about 32-fold lower than that of the compound before. `C[C@@H](c1nc2cc(Cl)ccc2n1CCC(F)(F)F)n1nc(S(C)(=O)=O)c2ccncc21` [Example 15-2, 1-{(1S)-1-[5-Chloro-1-(3,3,3-trifluoropropyl)-1H-benzimidazol-2-yl]ethyl}-3-(methylsulfonyl)-1H-pyrazolo[3,4-c]pyridine] returned an EC50 of 68 nM. `CS(=O)(=O)c1nn(Cc2nc3cc(Cl)ccc3n2C2CCN(C(=O)CO)C2)c2cnccc12` (stereo not shown) [Example 2-17, 1-[3-(5-Chloro-2-{[3-(methylsulfonyl)-1H-pyrazolo[3,4-c]pyridin-1-yl]methyl}-1H-benzimidazol-1-yl)pyrrolidin-1-yl]-2-hydroxyethanone]: the EC50 stood at 10.9 nM. As for `CS(=O)(=O)c1nn(Cc2nc3cc(Cl)cc(F)c3n2CCC(F)(F)F)c2cnccc12` [Example 5-1, 1-{[5-Chloro-7-fluoro-1-(3,3,3-trifluoropropyl)-1H-benzimidazol-2-yl]methyl}-3-(methylsulfonyl)-1H-pyrazolo[3,4-c]pyridine], the figure is 17 nM; as for `CS(=O)(=O)c1nn(Cc2nc3cc(Cl)ccc3n2CCCC(F)(F)F)c2c[n+]([O-])ccc12` [Example 4-2, 1-{[5-Chloro-1-(4,4,4-trifluorobutyl)-1H-benzimidazol-2-yl]methyl}-3-(methylsulfonyl)-1H-pyrazolo[3,4-c]pyridine 6-oxide], 15.9 nM; as for `CS(=O)(=O)c1nn(Cc2nc3cc(Cl)ccc3n2-c2ccc(F)nc2)c2cnccc12` [Example 3-2, 1-{[5-Chloro-1-(6-fluoropyridin-3-yl)-1H-benzimidazol-2-yl]methyl}-3-(methylsulfonyl)-1H-pyrazolo[3,4-c]pyridine], 18.7 nM.

`CS(=O)(=O)c1nn(Cc2nc3cc(Cl)ccc3n2C2C[C@@H](O)[C@H](O)C2)c2cnccc12` [Example 2-45, trans-4-(5-chloro-2-{[3-(methylsulfonyl)-1H-pyrazolo[3,4-c]pyridin-1-yl]methyl}-1H-benzimidazol-1-yl)cyclopentane-1,2-diol] displayed an EC50 of 6.1 nM. Compared with the last compound, the EC50 is about 3.1-fold lower.
